Legend:
Format in all cases: in vivo
[1] = test system: sprouty homolog 2 gene (Spry2); assay: Intestinal gene expression: Spry2; details: mouse intestine; diet 1 ppm Se, 100 days; relative to Se-deficient controls
Text: (§1) Animal Care. Male C57BL/6J mice were housed singly and started on the experimental diets described below immediately after weaning (21 days of age). The mice were maintained in the Shared Aging Rodent Facility at the William S. Middleton Memorial Veterans Administration Medical Center (Madison, Wis.). Temperature and humidity were maintained at constant levels. Room light was controlled to provide 12-hr cycles of light and dark.
(§2) Experimental diets were created by Harlan Teklad (Madison, Wis.). Selenium content of the diets was determined by Covance Inc. (Madison, Wis.). Five (5) animals were included in each of the following treatment groups: a diet deficient in selenium (SD); a diet supplemented with selenomethionine (SM, obtained from Sigma, St. Louis, Mo.) such that the final selenium content of the diet was one (1) part per million; a diet supplemented with sodium selenite (SS, Sigma) such that the final concentration of selenium in this diet was one (1) part per million; or a diet supplemented with the yeast selenium SEL-PLEX (SP, Alltech, Lexington, Ky), such that the final concentration of selenium in this diet was one (1) part per million. SEL-PLEX. […]
(§3) Tissue sample preparation and microarray analysis. […] For intestinal expression studies, the intestine was flushed twice with saline solution and small intestine was measured and divided in three equal segments. […]

CORS-26 = assay: Cerebral cortex gene expression: CORS-26; details: mouse cerebral cortex; diet 1 ppm Se, 100 days; vs selenium deficient
Text: as §1, §2, §3

[2] = test system: transforming growth factor beta 2 (TGF-β2); assay: Intestinal gene expression: TGF-β2; details: mouse intestine; diet 1 ppm Se, 100 days; compared to controls
Text: as §1, §2, §3

[3] = test system: Growth arrest and DNA-damage-inducible 45 gamma. (Gadd45g); assay: Intestinal gene expression: Gadd45g; details: mouse intestine, diet 1 ppm Se, 100 days, vs selenium deficient, negative = down
Text: as §1
Experimental diets were created by Harlan Teklad (Madison, Wis.). Selenium content of the diets was determined by Covance Inc. (Madison, Wis.). Five (5) animals were included in each of the following treatment groups: a diet deficient in selenium (SD); a diet supplemented with selenomethionine (SM, obtained from Sigma, St. Louis, Mo.) such that the final selenium content of the diet was one (1) part per million; a diet supplemented with sodium selenite (SS, Sigma) such that the final concentration of selenium in this diet was one (1) part per million; or a diet supplemented with the yeast selenium SEL-PLEX (SP, Alltech, Lexington, Ky), such that the final concentration of selenium in this diet was one (1) part per million. SEL-PLEX. Mice were provided with water and their respective diet ad libitum for 100 days. Diets were stored at the dark at 4° C. and fresh diet was added to feeder twice weekly.
Tissue sample preparation and microarray analysis. Mice were killed at 100 days of age by cervical dislocation. For intestinal expression studies, the intestine was flushed twice with saline solution and small intestine was measured and divided in three equal segments. A 3-cm region of the middle segment of the small intestine corresponding to the jejunum (˜300 mg of tissue) was cut and rinsed again with physiological saline to completely remove contents, flash frozen in liquid nitrogen and stored at −80° C. For brain (e.g., cerebral cortex) studies, the cerebral cortex was separated from the surrounding brain tissue and was flash frozen in liquid nitrogen and stored at −80° C. […]

[4] = test system: Complement component 1, q subcomponent binding protein, C1qbp; assay: Cerebral cortex gene expression: C1qbp; details: mouse cerebral cortex; diet 1 ppm Se, 100 days; vs selenium deficient; * = significant, p<0.01
Text: as §1, §2, §3

Prohibitin (Phb) = assay: Intestinal gene expression: Prohibitin; details: mouse intestine; diet 1 ppm Se, 100 days; vs selenium deficient; p<0.05
Text: as §1, §2, §3

[5] = test system: LIM homeobox protein 8 gene (Lhx8); assay: Intestinal gene expression: Lhx8; details: mouse intestine; diet 1 ppm Se, 100 days; vs Se-deficient subjects
Text: as §1, §2, §3

Glyoxalase 1 (Glo 1) = assay: Intestinal gene expression: Glo1; details: mouse intestine; diet 1 ppm Se, 100 days; vs selenium deficient
Text: as §1, §2, §3

calpain-5 = assay: Expression level of calpain genes after selenium administration; details: signed change (+ up, − down); tissue not stated; * not explained
Method: Compositions and methods of the present invention were analyzed to determine if they were capable of altering the expression levels of calpain genes. Compositions comprising various forms of selenium (e.g., SeM, Sod-sel, and SEL-PLEX) were administered to subjects and the expression levels of calpain genes monitored. The expression level of calpain-5 was altered by treatment in the following ways: free selenomethionine (SM)+1.32*, Sod-sel−1.07, SEL-PLEX−1.44*.

selenoprotein N1 (Sepn1) = assay: Intestinal gene expression: selenoprotein N1; details: mouse intestine; diet 1 ppm Se, 100 days; vs selenium deficient
Text: as §1, §2, §3

Gst mu 7 (Gstm7) = assay: Brain gene expression: Gstm7; details: mouse brain; diet 1 ppm Se, 100 days; * significant relative to Se-deficient animals
Text: as §1, §2, §3

[6] = test system: Type 1 iodothyronine deiodinase; assay: Intestinal gene expression: Type 1 iodothyronine deiodinase; details: mouse intestine; diet 1 ppm Se, 100 days; vs selenium deficient
Text: as §1, §2, §3

[7] = test system: Complement component 1, q subcomponent, beta polypeptide, C1qbp; assay: Cerebral cortex gene expression: C1q beta polypeptide; details: mouse cerebral cortex; diet 1 ppm Se, 100 days; vs selenium deficient; * = significant, p<0.01
Text: as §1, §2, §3

[8] = test system: Cu chaperone for SOD, (CCS); assay: Intestinal gene expression: Cu chaperone for SOD; details: mouse intestine; diet 1 ppm Se, 100 days; vs selenium deficient
Text: as §1, §2, §3

[9] = test system: Glutathione S-transferase, mu1 (Gstm1); assay: Intestinal gene expression: Gstm1; details: mouse intestine; diet 1 ppm Se, 100 days; vs Se-deficient diets; negative = down; NS = not significant
Text: as §1, §2, §3

[10] = test system: Glutathione S-transferase, theta 2 (Gstt2); assay: Intestinal gene expression: Gstt2; details: mouse intestine; diet 1 ppm Se, 100 days; vs Se-deficient diets; negative = down; NS = not significant
Text: as §1, §2, §3

Glo1 expression, reduction of expression (Glyoxalase 1 (Glo 1))	Structure (SMILES)	Spry2 gene expression, reduction [1]	CORS-26 expression, reduction in expression (CORS-26)	TGF-β2 expression, upregulated [2]	FC Gadd45g expression [3]	FC Gadd45g expression ([3]; listed as SM)	FC C1qbp expression [4] [fold]	Prohibitin (Phb) expression, upregulated (Prohibitin (Phb)) [fold]	Lhx8 expression, upregulated [5]	expression level of calpain-5 altered by treatment (calpain-5)	selenoprotein N1 (Sepn1) expression level, increased (selenoprotein N1 (Sepn1))	FC Gstm7 expression (Gst mu 7 (Gstm7))	Type 1 iodothyronine deiodinase expression level, fold increase [6] [fold]	FC Complement component 1, q subcomponent, beta polypeptide expression [7] [fold]	FC Gadd45g expression ([3]; listed as SS)	enhancement in the expression of the Cu chaperone for SOD (CCS) [8] [fold]	FC Gstm1 expression [9] [fold]	FC Gstt2 expression [10] [fold]
not significantly affected	C[Se]CC[C@H](N)C(=O)O [SeM, selenomethionine]	no alteration	no alteration	not altered	decreased expression	−1.5 (p < 0.05) fold	1.12	1.6	not significantly different	+1.32	not significantly affected	−1.05 fold	2.0	−1.15				
	O=[Se](O)O [Sod-sel, sodium selenite]						1.11					−1.25* fold	2.8	−1.35	−2.0 (p < 0.01) fold	1.28	−2.4	−1.3

From patent US20070155687A1, “Methods and compositions for altering cell function” (Alltech, Inc., priority 2005, published 2007)
